The test system of assay [1] is cisplatin-sensitive SK-N-FI cells. Description: Relative cell viability by MTS assay, virus or drug. The class given is cell-based. To be noted: drug. On the procedure:
(§1) FIG. 25. Oncolytic adenovirus in combination with chemotherapy drugs. A cisplatin-insensitive clone of SK-N-FI and doxoru bicin-insensitive, etoposide-insensitive and vincristine-insensitive clones of SH-SY-5Y were established through repeated cycles of culture with increasing drug concentration. (A-D) Drug-sensitive (black lines) and drug-insensitive (grey dotted lines) neuroblastoma cells were then treated with viruses or drugs. The relative cell viability was analyzed after 4 days by MTS assay. (A) Oncolytic virus and cisplatin killing of SK-N-FI cells. (B) Oncolytic virus and etoposide killing of SH-SY-5Y cells. (C) Oncolytic virus and doxorubicin killing of SH-SY-5Y cells. (D) Oncolytic virus and vincristine killing of SH-SY-5Y cells. All data are shown as mean±SD from four independent experiments each with triplicate samples. (E) BON, NCI-H727 and QGP-1 cell lines were treated with PTD-based oncolytic adenovirus Ad5PTD(i/CgA-E1a-miR122T6) with different evg/cell in absence or presence of 10 μg/mL or 200 μg/mL cyclophosphamide. The relative cell viability was analyzed after 6 days by MTS assay.
(§2) A cisplatin-insensitive clone of the SK-N-FI neuroblastoma cell line and doxorubicin-, etoposide- and vincristine-insensitive clones of SH-SY-SY were established and treated with viruses at different evg/cell or drugs at various concentrations. The relative cell viability was analyzed by MTS assay. […] Ad5PTD(WT) also killed cisplatin-sensitive and insensitive SK-N-FI with the same efficacy (FIG. 25A).

Assay [2] concerns cisplatin-insensitive SK-N-FI cells. The description is as above. Type of assay: cell-based. On the procedure:
as §1, §2

Another assay concerns neutrophils. Description: Granulocyte activation assay, ROI production (DHR123). The class given is cell-based. To be noted: supernatants of transduced BON cells, 30 minutes. On the procedure:
(§3) BON cells were transduced with viruses Ad5PTDf35(D24-sNAP) or Ad5PTDf35(D24) at MOI 10 FFU/cell. Supernatants were harvested 48 hours post-transduction. (a) Transwell migration assay of human neutrophils isolated from 4 different individuals (2×10^5 cells/well) against harvested supernatants for 2 hours at 37° C. All samples were analyzed in triplicates and the data is represented as mean±SD of number of cells migrated. Supernatant from untransduced BON cells were used as control, (***p<0.001; n=12). (b) Granulocyte activation assay with supernatants from virus-transduced BON cells for 30 minutes at 37° C. Activation was measured in terms of ROI production, which was monitored using fluorescent dye DHR123. Supernatant from untransduced BON cells were used as control. At least 10000 events were recorded in the flow cytometer and MFI of DHR123 was recorded, (**p<0.01; *p<0.05; n=5). (c) Mice bearing BON tumors were treated with two intratumoral injections of Ad5PTDf35(D24-sNAP) or Ad5PTDf35(Δ24) (Indicated dotted arrows) and 2 mice per group were sacrificed, blood and tumor samples were drawn at different time points (indicated by solid arrows). Serum was separated from blood by centrifugation at 300 g for 10 min. Concentration of various cytokines determined by ELISA are represented in (d) TNF-α, (e) MIP2-α and (f) IL12/23 p40. […] All samples were analyzed in duplicates. […]

In assay [3] the test system is TNF-α, MIP2-α, IL12/23 p40. Description: Serum cytokines by ELISA after intratumoral virus injections. Type of assay: in vivo. To be noted: BON tumor-bearing mice, two intratumoral injections. Here is the method: as §3
On the technique in general: ELISA stands for enzyme-linked immunosorbent assay.

A further assay relates to human neutrophils. The assay can be described thus: Transwell migration assay of neutrophils against supernatants of virus-transduced BON cells. To be noted: supernatants 48 hours post-transduction, MOI 10 FFU/cell. Type of assay: cell-based. Here is the method: as §3

As for `N.N.[Cl][Pt][Cl]` [cisplatin], the IC50 (as a rule, the concentration needed to halve the response being measured) was 8 µM in assay [1] and 100 µM in assay [2] (cisplatin-insensitive SK-N-FI, drug). For the same molecule, in assay [2] (cisplatin-insensitive vs cisplatin-sensitive SK-N-FI), the “more drug needed to kill insensitive compared to sensitive cells” value is 12 fold.

B1: HP-NAP: Helicobacter pylori Neutrophil Activating Protein, here secreted from virus-transduced cells (protein)
chain: MKTFEILKHLQADAIVLFMKVHNFHWNVKGTDFFNVHKATEEIYEEFADMFDDLAERIVQLGHHPLVTLSEAIKLTRVKEETKTSFHSKDIFKEILEDYKYLEKEFKELSNTAEKEGDKVTVTYADDQLAKLQKSIWMLQAHLA
Turning to B1, the “neutrophil activation, release of reactive oxygen species” value with neutrophils is recorded as “activated them to release reactive oxygen species”. For the same molecule, in assay [3], the “induction of serum cytokines” value is “induced proinflammatory cytokines (TNF-α and MIP2-α) and Th1 type cytokines (IL12/23 p40)”. Moreover, the neutrophil migration entry in the assay on human neutrophils is recorded as “efficiently induce neutrophil migration”.

Values taken from patent US9017672B2, “Hexon Tat-PTD modified adenovirus and uses thereof” (Immunicum Aktiebolag, priority 2012, dated 2015).
